Test results reported in patent US20130131321A1, “LIGANDS FOR ANTIBODY AND Fc-FUSION PROTEIN PURIFICATION BY AFFINITY CHROMATOGRAPHY” (GRAFFINITY PHARMACEUTICALS GMBH, priority 2010, published 2013).

Key:
Bevacizumab [1] = molecular target: T1, Bevacizumab (Homo sapiens, UniProt P01857); assay: Microtiter plate chromatography of resins, Bevacizumab whole IgG (bound, yield, selectivity); format: binding, humanized
T1 construct: fused on or other part: humanised anti-VEGF-A VH domain N-terminal of the gamma-1 constant region (engineered, no UniProt entry)

Tocilizumab = assay: Microtiter plate chromatography of resins, Tocilizumab (bound, yield); format: binding, humanized
Palivizumab = assay: SPR screening of chemical microarrays, Palivizumab; format: binding, humanized; conditions: chemical microarray, immobilized ligand
Excerpt: (§1) Graffinity has developed high density chemical microarrays comprising thousands of small molecules immobilized onto gold chips. The arrays are constructed using maleimide-thiol coupling chemistry in combination with high density pintool spotting. For the construction, glass plates are microstructured by photolithographical methods in order to define up to 9,216 sensor fields per array. A subsequently applied gold coating provides the basis for the SPR effect and enables the formation of a binary, mixed self assembled monolayer (SAM) of two different thiols. […]
(§2) Surface plasmons are collective oscillations of electrons at a metal surface which can be resonantly excited by polarized light of appropriate wavelength and incidence angle. […] Processes which alter the local refractive index in close proximity to the metal surface (such as antibody binding to the immobilized ligands) can therefore be monitored sensitively. […] While scanning over a range of wavelengths covering the SPR resonance conditions, reflection images are recorded stepwise. […]
(§3) The experimental results of the microarray screening campaigns were analyzed by manual hit selection using in-house developed software routines as well as by an in-depth data analysis by commercially available data mining tools. […]

Bevacizumab [2] = molecular target: T1, Bevacizumab; assay: Uptake kinetics by batch adsorption (time-scale of binding); parameters: species or system humanized; conditions: 0.75 mg ml^−1 Bevacizumab in PBS, 25° C.
Experimental: Uptake kinetics were investigated similarly by batch adsorption in 96-well filter plates. Again, 10 μl of sorbent slurry (50% v/v) were mixed with 100 μl of protein solution. However, a fixed initial concentration of 0.75 mg ml^−1 Bevacizumab in PBS was used. Reactions were agitated vigorously at 25° C. for up to 80 min. Supernatants were separated rapidly by spinning through filters after 2.5, 5, 10, 20, 40 and 80 minutes and sampled for analysis. Concentrations of the antibody were analyzed by Bradford assay.
Uptake kinetics were characterized by a time-scale of binding t0.8, which was defined as the time after which 80% of the equilibrium saturation of resin with antibody had occurred. For determination of t0.8, measured concentrations in the supernatant were interpolated by fitting of double-exponentials (5) and values of t0.8 were read out from graphs. Parameters of Langmuir isotherms and time-scales of binding for in-house resins as well as for reference resins are reported in the table below.

Bevacizumab Fc fragment = assay: SPR screening of chemical microarrays, Bevacizumab Fc fragment; format: binding, humanized; conditions: chemical microarray, immobilized ligand
Excerpt: as §1, §2, §3

Compound: COc1ccc(NC(=O)c2cc(-c3ccco3)n(C)n2)cc1C(=O)NCCCN [Ligand L1, 5-[5-(2-Furyl)-1-methylpyrazol-3-yl]carboxamido-2-methoxybenzoic acid N-(3-aminopropyl)amide]
- Bevacizumab IgG Bound (%) (Bevacizumab [1]; fraction of whole IgG Bevacizumab bound to resin): 100%
- Bevacizumab IgG Yield (%) (Bevacizumab [1]; mass of whole IgG Bevacizumab eluted / mass injected): 91%
- Tocilizumab Bound (%) (Tocilizumab): 100%
- Tocilizumab Yield (%) (Tocilizumab): 97%
- SPR binding to full length Palivizumab (Palivizumab): clearly bound
- t0.8 (time-scale of binding, 80% of equilibrium saturation) (Bevacizumab [2]): 9.9 min
- SPR binding to Bevacizumab Fc fragment (Bevacizumab Fc fragment): distinct binding
